The source of these data is patent publication US11039618B2, “Metam salts and polysulfide soil treatment” (Tessenderlo Kerley, Inc, priority 2016, dated 2021).

The structures appear in SMILES notation.

The test system of one assay is Pythium. Description: Example 6: Pythium population in treated farm soil samples. The following applies: soil from another location; average over rates: LSS 45 and 90 gal/acre; metam sodium 20 and 40 gal/acre; combination 20 and 40 gal metam with 45 gal LSS; untreated 150. Type of assay: cell-based. On the procedure: Soil from a farm located in Washington state was treated with various solutions, and subsequently the population of Verticillium in treated samples were determined. Untreated samples contained 31 CFU per gram of dry soil. Soil treated with 90 gallons per acre liquid lime sulfur (276 pounds/acre or 309 kg/ha of calcium polysulfide) had less than 2 CFU per gram of dry soil. […] Samples treated with 170 pounds of metam sodium per acre and with a mixture of 138 pounds calcium polysulfide and 170 pounds of metam sodium per acre had about 70 to 80 CFU per gram of dry soil. […] The reason is not understood, and may reflect test protocols.
Clearly the test protocol and/or sample variability were over-riding factors. In tests on soil from another location, untreated soil had 150 CFU Pythium per gram of dry soil.

In another assay the test system is Verticillium. The assay is described as follows: Example 6: Verticillium population in treated farm soil samples. The conditions noted are these: soil from another location. The assay is classed as cell-based.

In the case of `CNC(=S)S` [Metam, sodium methyldithiocarbamate], in the assay on Pythium, the “average CFU Pythium per gram of dry soil” value was 60 CFU per gram of dry soil. The “suppression of the Verticillium” value in the assay on Verticillium is “only modest suppression”. Besides, the “average Verticillium CFU per gram of dry soil” value in the assay on Verticillium (average over rates: LSS 45 and 90 gal/acre, metam sodium 20 and 40 gal/acre, mixture 20 and 40 gal metam with 45 gal LSS, untreated 41) is given as 30 CFU per gram of dry soil.
